The species named for experiment [1] is Homo sapiens. The experiment in a line: Binding affinity to human telo21 G-quadruplex DNA assessed as thermal stability in tris-HCl buffer at pH 7.4.
A short description of experiment [2]: Inhibition of amplification in human telo21 G-quadruplex DNA by PCR stop assay.
For experiment [3], the species on record is Homo sapiens. Description: Binding affinity to human telo21 G-quadruplex DNA assessed as change in thermal stability in tris-HCl buffer at pH 7.4.
Experiment [4] is described as follows: Inhibition of telomerase expressed in MCF7 cells by TRAP assay. Type of experiment: cell-based, Homo sapiens.

SMILES strings stand for the structures.

In general, IC50 refers to the concentration that gives 50% inhibition. The ΔTm is the change in melting temperature against a reference sample.

`COc1ccc2cc3[n+](cc2c1OCCN(C(C)C)C(C)C)CCc1cc2c(cc1-3)OCO2`: the Tm in the experiment listed under Homo sapiens [1] is 51.7 °C. Moreover, the IC50 is 2.3 µM in experiment [2] and 25 µM in experiment [4]. Also, the ΔTm in the experiment listed under Homo sapiens [3] turned out to be 11.6 °C.

Consider `CCN(CC)CCOc1c(OC)ccc2cc3[n+](cc12)CCc1cc2c(cc1-3)OCO2`, for which the Tm in the experiment filed under Homo sapiens [1] came out at 57 °C. The values for the IC50 in experiment [2] and in experiment [4] were 2.3 µM and 25 µM, respectively. Besides, the thermal shift (ΔTm) in the experiment filed under Homo sapiens [3] was 16.9 °C.

`COc1ccc2cc3[n+](cc2c1OCCCN1CCNCC1)CCc1cc2c(cc1-3)OCO2`: the Tm in the experiment listed under Homo sapiens [1] came out at 63.1 °C. Moreover, the IC50 is 0.7 µM in experiment [2] and 7.5 µM in experiment [4]. In the experiment filed under Homo sapiens [3], the ΔTm came out at 23 °C.

Regarding `COc1ccc2cc3[n+](cc2c1OC)CCc1cc2c(cc1-3)OCO2` [BERBERINE CHLORIDE], the Tm in the experiment filed under Homo sapiens [1] stood at 44 °C. Moreover, the IC50 in experiment [2] was 2.1 µM; in experiment [4], 75 µM. Besides, the thermal shift (ΔTm) in the experiment filed under Homo sapiens [3] amounted to 3.9 °C.

The values are drawn from ChEMBL document CHEMBL1149624, “9-Substituted berberine derivatives as G-quadruplex stabilizing ligands in telomeric DNA” (Bioorg Med Chem, 2007).
